Values quoted from earlier work as cited in patent publication US7973084B2, “Molecular transporters based on alditol or inositol and processes for the preparation thereof” (Postech Academy-Industrial Foundation, priority 2005, dated 2011).

Tested on: Jurkat cells

| Substance | uptake by Jurkat cells (determined using FACS) | effectiveness in the transportation across a biological membrane relative to Tat protein (49-57 a.a.) (compared with Tat protein (49-57 a.a.)) |
| --- | --- | --- |
| D-arginine nonamer | much more effective |  |
| L-arginine nonamer |  | 20 times |
